# Laboratory results from US20090220562A1, “Osteogenic and anti-adipogenic oxysterols” (priority 2005, published 2009).
# How the values were obtained:
# Format in all cases: cell-based, mouse
# [1] = system: M2-10B4 marrow stromal cells; assay: Matrix mineralization (45Ca incorporation assay, von Kossa staining) in M2-10B4 marrow stromal cells; settings: for effect on oxysterol-induced mineralization: 22R+20S (RS), SC-560 10 μM, ACA 25 μM, AACOCF3 20 μM or PD98059 20 μM, 10 days
# Experimental: (§1) Cells: M2-10B4 mouse marrow stromal cell line obtained from American Type Culture Collection (ATCC, Rockville, Md., U.S.A.) was derived from bone marrow stromal cells of a (C57BL/6J x C3H/HeJ) Fl mouse, and support human and murine myelopoiesis in long-term cultures (as per ATCC) and have the ability to differentiate into osteoblastic and adipocytic cells. Unless specified, these cells were cultured in RPMI 1640 containing 10% heat-inactivated FBS, and supplemented with 1 mM sodium pyruvate, 100 U/ml penicillin, and 100 U/ml streptomycin (all from Irvine Scientific).
# Von Kossa and oil red O staining—Matrix mineralization in cell monolayers was detected by silver nitrate staining as previously described. Oil red O staining for detection of adipocytes was performed as previously described.
# ^45Ca incorporation assay—Matrix mineralization in cell monolayers was quantified using the ^45Ca incorporation assay as previously described.
# After 14 days, mineralization was identified by a von Kossa staining, which appears black. FIG. 3C is a depiction of von Kossa staining of M2 cells exposed to various conditions.
# After 14 days, matrix mineralization in cultures was quantified using a ^45Ca incorporation assay.
# (§2) Next, a combination of 22R and 20S oxysterols (RS, 2.5 μM each) were added in the presence or absence of SC as indicated. After 3 days, ALP activity was measured as described earlier. […] (B) M2 cells were treated as described in (A) and after 10 days matrix mineralization in cultures was quantified by a ^45Ca incorporation assay as described earlier. […] (C) M2 cells were pretreated with 20 μM SC for 4 hours, followed by the addition of RS in the presence or absence of SC as described above. After 8 days, total RNA was isolated and analyzed for osteocalcin (Osc) and […] expression by Northern blotting as previously described. Data from densitometric analysis of the Northern blot is shown in (D) as the average of duplicate samples, normalized to 18S rRNA. (E) M2 cells at confluence were pretreated for 2 hours with control vehicle (C), or PLA2 inhibitors ACA (25 μM) and AACOCF3 (AAC, 20 μM), in osteogenic medium. Next, a combination of 22R and 20S oxysterols (RS, 2.5 μM) was added in the presence or absence of the inhibitors as indicated. After 3 days, ALP activity was measured as previously described. […] (F) M2 cells were treated as described in (E). After 10 days, matrix mineralization in cultures was quantified using a ^45Ca incorporation assay as previously described. Results from a representative of three experiments are shown, reported as the mean of quadruplicate determinations ±SD, normalized to protein concentration (p<0.01 for RS vs. RS+ACA and RS+AAC).
# (A) M2 cells at confluence were pretreated for four hours with RPMI containing 1% FBS, followed by treatment with control vehicle or 5 μM 20S oxysterol for 1, 4, or 8 hours. Next total cell extracts were prepared and analyzed for levels of native or phosphorylated ERK (pERK) using specific antibodies as previously described. Data from a representative of four experiments are shown, each treatment shown in duplicate samples. (B) M2 cells at confluence were pretreated for 2 hours with control vehicle (C) or 20 μM PD98059 (PD) in osteogenic medium as previously described. Next, a combination of 22R and 20S oxysterols (RS, 5 μM each) were added to appropriate wells as indicated. After 10 days of incubation, matrix mineralization was quantified by the ^45Ca incorporation assay as previously described. […] (C) M2 cells at confluence were pretreated for 2 hours with 20 µM PD98059 (PD) in RPMI containing 5% FBS. Next, the cells were treated with control vehicle (C), 10 μM troglitazone (Tro), or 10 μM of 20S or 22S oxysterols, alone or in combination as indicated. After 10 days, adipocytes were visualized by oil Red O staining and quantified by light microscopy as previously described. […]
# [2] = system: M2-10B4 marrow stromal cells; assay: Alkaline phosphatase (ALP) activity assay on whole cell extracts of M2-10B4 marrow stromal cells; settings: for effect on oxysterol-induced alkaline phosphatase activity: 22R+20S (RS), pretreatment with SC-560 10 μM, ACA 25 μM, AACOCF3 20 μM or PD98059 20 μM, 3 days; for reversal of the effects of COX-1 and PLA2 inhibitors on oxysterol-induced alkaline phosphatase activity: 1 μM PGE2, 25 μM arachidonic acid, data not shown
# Experimental: as §1
# Cells were always treated at 90% confluence. […]
# as §2, with “Results from a representative of three experiments are shown, reported as the mean of quadruplicate determinations ±SD, normalized to protein concentration (p<0.01 for RS vs. RS+ACA and RS+AAC).” left out
# marrow stromal cells = assay: Osteogenic differentiation of marrow stromal cells (marker not specified: ALP activity, osteocalcin mRNA, mineral formation)
# Experimental: The purpose of the study was to identify other osteogenic and anti-adipogenic oxysterols based on the chemical structure of previously identified oxysterols. The ability of such candidate oxysterol molecules to induce the formation of osteoblastic cells in cultures of marrow stromal cells (which are progenitors of osteoblastic cells that make bone) were tested. In order to assess osteogenic differentiation of cells, one or more markers of osteogenic differentiation were measured in untreated cells and cells treated with the test oxysterols. These markers included: alkaline phosphatase activity, osteocalcin mRNA expression and mineral formation in cultures of marrow stromal cells. Activation of either one or more than one marker by a single or combination oxysterols is indicative of their osteogenic property.
# osteocalcin mRNA = assay: Northern blotting for osteocalcin mRNA in M2-10B4 cells; settings: for synergy with oxysterols in induction of osteocalcin: BMP 50 ng/ml with 22S+20S (SS, 2.5 μM)
# Experimental: RNA isolation and Northern blot analysis—Following treatment of cells under appropriate experimental conditions, total RNA was isolated using the RNA isolation kit from Stratagene (La Jolla, Calif., U.S.A.). Total RNA ([…]) was run on a 1% agarose/formaldehyde gel and transferred to Duralon-UV membranes (Strategene, CA, U.S.A.) and cross-linked with UV light. The membranes were hybridized overnight at 60 degree C. with ^32P-labeled mouse osteocalcin cDNA probe, mouse lipoprotein lipase (LPL), mouse adipocyte protein 2 (aP^2) PCR-generated probes, human 28S or 18S rRNA probes obtained from Geneka Biotechnology (Montreal, Quebec, Canada) and Maxim Biotech (San Francisco, Calif., U.S.A.), respectively. The PCR products were generated using primer sets synthesized by Invitrogen (Carlsbad, Calif., U.S.A.) with the following specifications: mouse aP2 gene (accession no. M13261); sense (75-95) 5′-[…]-3′, antisense (362-383) 5′-[…]-3′, generating a PCR product of 309 base pairs. Mouse LPL (accession no. XM—134193); sense (1038-1058) 5′-[…]-3′, antisense (1816-1836) 5′-[…]-3′, generating a PCR product of 799 base pairs. The PCR products were gel-purified and sequenced by the UCLA sequencing core, showing the highest similarity to their respective GenBank entries. Following hybridization, the blots were washed twice at room temperature with 2×SSC+0.1% SDS, and then twice at 60 degree C. with 0.5×SSC+0.1% SDS, and exposed to X-ray film. The extent of gene induction was determined by densitometry.
# After 4 and 8 days, total RNA from duplicate samples was isolated and analyzed for osteocalcin (Osc) and 28S rRNA expression by Northern blotting as described. FIG. 3E is a radiogram of Northern blotting for osteocalcin mRNA in M2 cells exposed to a control or combination of oxysterols for 4 or 8 days. FIG. 3F is a bar graph depicting the relative demsometric units of osteocalcin mRNA in M2 cells exposed to a control or combination of oxysterols for 4 -or 8 days. Data from densitometric analysis of the Northern blot is shown in (F) as the average of duplicate samples, normalized to 28S rRNA.
# as §2
# ALP activity was measured after 2 days, as described. […] (B) M2 cells were treated as described in (A). After 10 days, matrix mineralization in cultures was quantified using a ^45Ca incorporation assay as described. […] (C) M2 cells were treated under similar conditions as those described above. […]
# [3] = pretreatment, cyclopamine 1-10 μM, DKK-1 1 μg/ml
molecule,measurement,setting,value
"CCCCC/C=C\C/C=C\C/C=C\C/C=C\CCCC(=O)C(F)(F)F [AACOCF3, reference compound]",effect on oxysterol-induced mineralization,[1],inhibited
same,effect on oxysterol-induced alkaline phosphatase activity,[2],inhibited
C[C@@H](CO)CCC[C@@H](C)[C@H]1CC[C@H]2[C@@H]3CC=C4C[C@@H](O)CC[C@]4(C)[C@H]3CC[C@]12C [26-hydroxycholesterol],"osteogenic property, alone or in combination with originally described oxysterols",marrow stromal cells,osteoinductive
"CC(C)CCC[C@@H](C)[C@H]1CC[C@H]2[C@@H]3[C@H](O)C=C4C[C@@H](O)CC[C@]4(C)[C@H]3CC[C@]12C [7alpha-hydroxycholesterol, reference compound]",levels of osteocalcin mRNA relative to the control,"osteocalcin mRNA; 5 μM, eight days, M2-10B4",did not appear to significantly affect
"CCCCCc1ccc(/C=C/C(=O)Nc2ccccc2C(=O)O)cc1 [ACA, reference compound]",effect on oxysterol-induced mineralization,[1],inhibited
same,effect on oxysterol-induced alkaline phosphatase activity,[2],inhibited
DKK-1: Wnt signaling inhibitor,effect on SS-induced osteocalcin mRNA expression,osteocalcin mRNA; [3],inhibited
same,effect on SS-induced mineralization,[1]; [3],inhibited
same,effect on SS-induced alkaline phosphatase (ALP) activity,[2]; [3],inhibited
"COc1cccc(-c2cc(=O)c3ccccc3o2)c1N [PD98059, reference compound]",effect on oxysterol-induced mineralization,[1],inhibited
"C[C@]12CC[C@H]3[C@@H](CCC4=C[C@H](O)CC[C@@H]43)[C@@H]1CC[C@@H]2O [estren, reference compound]",osteogenic properties,marrow stromal cells,did not have any osteogenic properties
"COc1ccc(-n2nc(C(F)(F)F)cc2-c2ccc(Cl)cc2)cc1 [SC-560, reference compound]",effect on oxysterol-induced osteocalcin gene expression,"osteocalcin mRNA; 22R+20S (RS), SC-560 20 μM, 8 days, PD98059 (data not shown)",inhibited
same,effect on oxysterol-induced mineralization,[1],inhibited
"CCCCC/C=C\C/C=C\C/C=C\C/C=C\CCCC(=O)O [arachidonic acid, reference compound]",reversal of the effects of COX-1 and PLA2 inhibitors on oxysterol-induced alkaline phosphatase activity,[2],reversed
BMP14: bone morphogenic protein 14,synergy with oxysterols in induction of osteocalcin,osteocalcin mRNA; eight days,synergistic induction
same,synergy with oxysterols in induction of mineralization,[1],synergistically induced
same,synergy with oxysterols in induction of alkaline phosphatase activity,[2],synergistically induced
"CCCCC[C@H](O)/C=C/[C@H]1[C@H](O)CC(=O)[C@@H]1C/C=C\CCCC(=O)O [PGE2, prostaglandin E2, reference compound]",reversal of the effects of COX-1 and PLA2 inhibitors on oxysterol-induced alkaline phosphatase activity,[2],reversed
"CS(=O)(=O)Nc1ccc([N+](=O)[O-])cc1OC1CCCCC1 [NS-398, reference compound]",inhibition of the osteogenic effects of oxysterol combinations,"marrow stromal cells; 22R+20S and 22S+20S, SC-560 1-20 μM, NS-398 20 μM (highest non-toxic dose)",negligible inhibitory effects
"O=S(=O)(c1ccccc1)N(CC(F)(F)F)c1ccc(C(O)(C(F)(F)F)C(F)(F)F)cc1 [TO-901317, reference compound]",induction of osteocalcin gene expression,osteocalcin mRNA; after 10 days,did not induce
same,induction of mineralization,[1]; after 10 days,did not induce
same,effect on alkaline phosphatase activity,[2]; 1-10 μM,dose-dependent inhibition
"C[C@]12CC[C@@H]3c4ccc(O)cc4CC[C@H]3[C@@H]1CC[C@@H]2O [beta-estradiol, reference compound]",osteogenic properties,marrow stromal cells,did not have any osteogenic properties
"BMP7: bone morphogenic protein 7 (protein, UniProt P18075 293-431, looked up) Bone morphogenetic protein 7: STGSKQRSQNRSKTPKNQEALRMANVAENSSSDQRQACKKHELYVSFRDLGWQDWIIAPEGYAAYYCEGECAFPLNSYMNATNHAIVQTLVHFINPETVPKPCCAPTQLNAISVLYFDDSSNVILKKYRNMVVRACGCH",synergy with oxysterols in induction of osteocalcin,osteocalcin mRNA; eight days,synergistic induction
same,synergy with oxysterols in induction of mineralization,[1],synergistically induced
same,synergy with oxysterols in induction of alkaline phosphatase activity,[2],synergistically induced
